*1 amine or outer side, *2 acyl side, *3 side chain or, on linkers, in order; H or OH if unused. Where a SMILES comes first, the peptide text is derived from it. Bridges are numbered along the chain shown (N, C = ends). [ ]: non-standard residue; d: D form. The star is where a group is joined. hPhe(3-Cl-4-CF3) = N[C@@H](CCc1ccc(C(F)(F)F)c(Cl)c1)C(=O)O; NPrPhe(4-CF3) = CCCN[C@@H](Cc1ccc(C(F)(F)F)cc1)C(=O)O; NMeGly(cPent) = CN[C@H](C(=O)O)C1CCCC1; NMeD = CN[C@@H](CC(=O)O)C(=O)O; NMeL = CN[C@@H](CC(C)C)C(=O)O; X14 = N#CCN(CC(=O)[*:2])[*:1]; Morpholide = C1CN(*)CCO1; Ac5c = NC1(C(=O)O)CCCC1; Aze = O=C(O)[C@@H]1CCN1; Sar = CNCC(=O)O
How the values were obtained:
[1] = biological target: GDP-bound NRAS wild-type protein (Homo sapiens, UniProt P01111); experiment: Binding to NRAS by surface plasmon resonance (SPR), Single Cycle Kinetics; details: for NRAS/KRAS (ratio of KD value with respect to NRAS to KD value with respect to KRAS): GDP-bound NRAS wild-type vs GDP-bound KRAS wild-type; for NRAS/KRAS (ratio of KD value with respect to GDP-bound NRAS wild-type protein to KD value with respect to KRAS): class symbols
Sequence of GDP-bound NRAS wild-type protein (P01111 whole entry): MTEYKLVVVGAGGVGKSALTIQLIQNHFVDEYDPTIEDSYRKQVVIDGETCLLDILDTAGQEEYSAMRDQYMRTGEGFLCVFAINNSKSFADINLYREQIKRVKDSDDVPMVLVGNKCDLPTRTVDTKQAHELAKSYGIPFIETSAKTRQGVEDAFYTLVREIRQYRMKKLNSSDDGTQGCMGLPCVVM

[2] = biological target: GDP-bound HRAS wild-type protein (Homo sapiens, UniProt P01112); experiment: Binding to HRAS by surface plasmon resonance (SPR), Single Cycle Kinetics; details: for HRAS/KRAS (ratio of KD value with respect to HRAS to KD value with respect to KRAS): GDP-bound HRAS wild-type vs GDP-bound KRAS wild-type; for HRAS/KRAS (ratio of KD value with respect to GDP-bound HRAS wild-type protein to KD value with respect to KRAS): class symbols
Sequence of GDP-bound HRAS wild-type protein (P01112 whole entry): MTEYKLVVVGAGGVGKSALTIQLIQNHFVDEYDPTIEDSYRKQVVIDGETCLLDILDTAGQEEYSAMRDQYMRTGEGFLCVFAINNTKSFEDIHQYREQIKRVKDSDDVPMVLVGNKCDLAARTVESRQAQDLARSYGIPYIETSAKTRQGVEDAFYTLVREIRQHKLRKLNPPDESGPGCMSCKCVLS

`CC[C@H](C)[C@@H]1NC(=O)[C@H](CC(C)C)N(C)C(=O)C[C@@H](C(=O)N2CCOCC2)N(C)C(=O)[C@H](C2CCCC2)N(C)C(=O)C2(CCC2)NC(=O)[C@@H]2C[C@@H](OC)CN2C(=O)[C@H](CCc2cc(F)c(C(F)(F)F)c(F)c2)NC(=O)CN(C)C(=O)[C@H](Cc2ccc(C(F)(F)F)cc2)N2CCCCC[C@@H](C2=O)N(C)C(=O)CN(C)C1=O` [PP1016] was tested, and the “NRAS/KRAS (ratio of KD value with respect to NRAS to KD value with respect to KRAS)” value ([1]; KD ratio, SPR) was “A (a compound having 10 or more and less than 20 is denoted as A)” and the “HRAS/KRAS (ratio of KD value with respect to HRAS to KD value with respect to KRAS)” value ([2]; KD ratio, SPR) was “B (a compound having 3 or more and less than 10 is denoted as B)”.
With `CCO[C@@H]1C[C@H]2C(=O)NC3(CCC3)C(=O)N(C)[C@@H](C3CCCC3)C(=O)N(C)[C@H](C(=O)N3CCOCC3)CC(=O)N(C)[C@@H](Cc3cccc(Cl)c3)C(=O)N[C@@H]([C@@H](C)CC)C(=O)N(C)CC(=O)N(C)[C@H]3CCCCCN(C3=O)[C@@H](Cc3ccc(C(F)(F)F)cc3)C(=O)N(C)CC(=O)N[C@@H](CCc3cc(F)c(C(F)(F)F)c(F)c3)C(=O)N2C1` [PP0857] the “NRAS/KRAS (ratio of KD value with respect to NRAS to KD value with respect to KRAS)” value ([1]; KD ratio, SPR) was “B (a compound having 3 or more and less than 10 is denoted as B)” and the “HRAS/KRAS (ratio of KD value with respect to HRAS to KD value with respect to KRAS)” value ([2]; KD ratio, SPR) was “B (a compound having 3 or more and less than 10 is denoted as B)”.
For `CCC[C@H]1C(=O)N[C@@H]([C@@H](C)CC)C(=O)N(C)CC(=O)N(C)[C@H]2C/C=C\CCN(C2=O)[C@@H](Cc2ccc(C(F)(F)F)cc2)C(=O)N(C)CC(=O)N[C@@H](CCc2cc(Cl)c3c(ccn3C)c2)C(=O)N2C[C@H](OCC)C[C@H]2C(=O)NC2(CC(C)(C)C2)C(=O)N(C)[C@@H](C2CCCC2)C(=O)N(C)[C@H](C(=O)N(C)C)CC(=O)N1C` [PP2950], the “NRAS/KRAS (ratio of KD value with respect to GDP-bound NRAS wild-type protein to KD value with respect to KRAS)” value ([1]; KD ratio NRAS/KRAS) was “A (a compound having 10 or more and less than 20 is denoted as A)” and the “HRAS/KRAS (ratio of KD value with respect to GDP-bound HRAS wild-type protein to KD value with respect to KRAS)” value ([2]; KD ratio HRAS/KRAS) was “A (a compound having 10 or more and less than 20 is denoted as A)”.
For `CC[C@H](C)[C@@H]1NC(=O)[C@H](COC)N(C)C(=O)C[C@@H](C(=O)N(C)CC)N(C)C(=O)[C@H](C2CCCC2)N(C)C(=O)C2(CC(C)(C)C2)NC(=O)[C@@H]2C[C@H](C)CN2C(=O)[C@H](CCc2cc(F)c(C(F)(F)F)c(F)c2)NC(=O)CN(C)C(=O)[C@H](Cc2ccc(C)cc2)N2CC/C=C\C[C@@H](C2=O)N(C)C(=O)CN(C)C1=O` [PP2437], the “NRAS/KRAS (ratio of KD value with respect to NRAS to KD value with respect to KRAS)” value ([1]; SPR) was “A (a compound having 10 or more and less than 20 is denoted as A)” and the “HRAS/KRAS (ratio of KD value with respect to HRAS to KD value with respect to KRAS)” value ([2]; SPR) was “A (a compound having 10 or more and less than 20 is denoted as A)”.
`CCCN1C(=O)[C@@H]2CCN2C(=O)CN(CC#N)C(=O)[C@H]([C@@H](C)CC)NC(=O)[C@H](CC(C)C)N(C)C(=O)C[C@@H](C(=O)N2CCOCC2)N(C)C(=O)[C@H](C2CCCC2)N(C)C(=O)C2(CCCC2)NC(=O)[C@@H]2CCCN2C(=O)[C@H](CCc2ccc(C(F)(F)F)c(Cl)c2)NC(=O)CN(C)C(=O)[C@@H]1Cc1ccc(C(F)(F)F)cc1` [PP0275] ([NMeL]I[X14][Aze][NPrPhe(4-CF3)][Sar][hPhe(3-Cl-4-CF3)]P[Ac5c][NMeGly(cPent)][NMeD]-Morpholide; lactam N-11) was tested, and the “NRAS/KRAS (ratio of KD for GDP-bound NRAS wild-type to KD for KRAS)” value ([1]; KD ratio NRAS/KRAS, SPR) was “C (A compound having a KD ratio of 0.1 or more and less than 3 is denoted as C)” and the “HRAS/KRAS (ratio of KD for GDP-bound HRAS wild-type to KD for KRAS)” value ([2]; KD ratio HRAS/KRAS, SPR) was “C (A compound having a KD ratio of 0.1 or more and less than 3 is denoted as C)”.
With `CCC(CC)[C@H]1C(=O)N(C)[C@H](C(=O)N(C)C)CC(=O)N(C)[C@@H](COC)C(=O)N[C@@H]([C@@H](C)CC)C(=O)N(C)CC(=O)N(C)[C@H]2C/C=C\CCN(C2=O)[C@@H](Cc2ccc(C(F)(F)F)cc2)C(=O)N(C)CC(=O)N[C@@H](CCc2ccc(Cl)c(Cl)c2)C(=O)N2CCOC[C@H]2C(=O)NC2(CC(C)(C)C2)C(=O)N1C` [PP2941] the “NRAS/KRAS (ratio of KD value with respect to GDP-bound NRAS wild-type protein to KD value with respect to KRAS)” value ([1]; KD ratio NRAS/KRAS) was “AA (a compound having 20 or more is denoted as AA)” and the “HRAS/KRAS (ratio of KD value with respect to GDP-bound HRAS wild-type protein to KD value with respect to KRAS)” value ([2]; KD ratio HRAS/KRAS) was “A (a compound having 10 or more and less than 20 is denoted as A)”.
In the case of `CCO[C@@H]1C[C@H]2C(=O)NC3(CCC3)C(=O)N(C)[C@@H](C3CCCC3)C(=O)N(C)[C@H](C(=O)N(C)C)CC(=O)N(C)[C@@H](CC)C(=O)N[C@@H]([C@@H](C)CC)C(=O)N(C)CC(=O)N(C)[C@H]3CCCCN(C3=O)[C@@H](Cc3ccc(C(F)(F)F)cc3)C(=O)N(C)CC(=O)N[C@@H](CCc3ccc(OC(F)F)c(F)c3)C(=O)N2C1` [PP0986], the “NRAS/KRAS (ratio of KD value with respect to NRAS to KD value with respect to KRAS)” value ([1]; KD ratio, SPR) is reported as “C (A compound having a KD ratio of 0.1 or more and less than 3 is denoted as C)” and the “HRAS/KRAS (ratio of KD value with respect to HRAS to KD value with respect to KRAS)” value ([2]; KD ratio, SPR) is reported as “C (A compound having a KD ratio of 0.1 or more and less than 3 is denoted as C)”.
